The test system of assay [1] is cultured resident peritoneal rat macrophages. Kind of assay: Intracellular calcium concentration [Ca2+]i with Fura-2AM in macrophages. The format is cell-based. A general note: Calcium flux is commonly read through the fluorescence of an indicator in the cells.
Assay [2] relates to glutathione reductase (XE 1.6.4.2). Description: Liver enzyme activity in rats with cyclophosphan hepatotoxicity. To be noted: rat liver cytosolic fraction; cyclophosphan 20 mg/kg for 10 days; test substance intraperitoneally 10 mg/kg (compound 2: 0.1 mg/kg).
Assay [3] relates to glutathione peroxidase (XE 1.11.1.9). The description is as above. The settings on record: rat liver cytosolic fraction; cyclophosphan 20 mg/kg for 10 days; test substance intraperitoneally 10 mg/kg (compound 2: 0.1 mg/kg).
Assay [4] concerns glutathione-S-transferase (XE 2.5.1.18). The description is as above. The settings on record: rat liver cytosolic fraction; cyclophosphan 20 mg/kg for 10 days; test substance intraperitoneally 10 mg/kg (compound 2: 0.1 mg/kg).
In assay [5] the test system is glucose-6-phosphate dehydrogenase (XE 1.1.1.49). The description is as above. The settings on record: rat liver cytosolic fraction; cyclophosphan 20 mg/kg for 10 days; test substance intraperitoneally 10 mg/kg (compound 2: 0.1 mg/kg).
A further assay relates to reduced glutathione. Description: Liver reduced glutathione in rats with cyclophosphan hepatotoxicity. To be noted: rat liver; cyclophosphan 20 mg/kg for 10 days; test substance intraperitoneally 10 mg/kg (compound 2: 0.1 mg/kg).

Data on two compounds can be found in patent US10786577B2, “Pharmaceutical composition comprising glutatione disulfide and glutathione disulfide S-oxide” (OBSCHESTVO S OGRANICHENNOY OTVETSTVENNOSTJU “IVA FARM”, priority 2017, dated 2020).

As for `Nc1ncnc2c1ncn2[C@@H]1O[C@H](COP(=O)(O)OP(=O)(O)OP(=O)(O)O)[C@@H](O)[C@H]1O` [ATP], the “[Ca2+]i peak” value in assay [1] (200 μM extracellular ATP, macrophages in normal saline, basal level 75±18 nM) worked out at 820 ± 105 nM. In assay [1] (4 minutes after the addition of ATP (200 μM), normal saline), the “average [Ca2+]i during plateau phase” value stood at 460 ± 115 nM.
As to `NC(CCC(=O)NC(CS[S+]([O-])CC(NC(=O)CCC(N)C(=O)O)C(=O)NCC(=O)O)C(=O)NCC(=O)O)C(=O)O` (stereo not shown) [Example 1, glutathione disulfide S-oxide], the GR in assay [2] is on record as 117.8 ± 12.6 μmol/(min × g protein. Moreover, the GP in assay [3] is given as 27.9 ± 2.2 μmol/(min × g protein. Also, the GST in assay [4] is 1857 ± 120 μmol/(min × g protein. Also, in assay [5], the G-6-PDG is recorded as 98.1 ± 13.3 μmol/(min × g protein. The GSH in the assay with reduced glutathione worked out at 11.21 ± 0.56 μmol/g protein.
